The results in this text go back to patent US8883782B2, “Spiro-tetracyclic ring compounds as beta-secretase modulators and methods of use” (Amgen Inc., priority 2010, dated 2014).

Like-named read-outs stand apart in the source and are kept apart here.

The target in experiment [1] is Beta Secretase enzyme (BACE) (Homo sapiens, UniProt P56817). The experiment can be described thus: In vitro enzymatic BACE FRET (fluorescence resonance energy transfer) assay. The format is biochemical. The method, boiled down: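 Buffer 0.05 M acetate pH 4.2, 10% DMSO final, 100 uM genapol (sub-CMC); start with 50 nM FRET substrate; 1 h incubation; Tris stop; fluorescence read.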
Chain of Beta Secretase enzyme (BACE) (P56817 46-501, species assumed): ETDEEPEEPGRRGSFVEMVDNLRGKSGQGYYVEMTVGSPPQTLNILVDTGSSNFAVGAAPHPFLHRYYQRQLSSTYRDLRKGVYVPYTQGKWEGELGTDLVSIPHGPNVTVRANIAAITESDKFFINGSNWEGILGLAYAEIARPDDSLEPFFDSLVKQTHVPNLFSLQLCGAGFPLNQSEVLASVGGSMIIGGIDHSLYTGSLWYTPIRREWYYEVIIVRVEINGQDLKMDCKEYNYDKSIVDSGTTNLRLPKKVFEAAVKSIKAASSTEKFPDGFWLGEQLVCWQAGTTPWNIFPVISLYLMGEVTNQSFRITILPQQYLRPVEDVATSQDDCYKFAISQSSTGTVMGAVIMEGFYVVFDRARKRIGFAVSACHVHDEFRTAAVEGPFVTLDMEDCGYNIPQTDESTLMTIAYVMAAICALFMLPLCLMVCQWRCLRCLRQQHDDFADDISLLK

The test system of experiment [2] is Aβ40 in conditioned medium of cells stably expressing Amyloid Precursor Protein (APP). The experiment can be described thus: In vitro BACE cell-based assay (Aβ40 in conditioned medium, sandwich ELISA). The method, boiled down: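 Step two: 10-point compound titration added, starting 100 μM or 10 μM, 0.1% DMSO. Step three: medium Aβ40 measured by ELISA, capture 3 h and detection 2 h at 4° C, TRF read.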
A general note: ELISA stands for enzyme-linked immunosorbent assay.

[3] abbreviates: average IC50, enzyme assay, read-out: BACE 1 FRET assay.
The mark [4] stands for this setting: Homo sapiens, HEK293, average IC50, read-out: HEK cell assay.
Where [5] appears, read: Homo sapiens, HEK293, average IC50, HEK cells, read-out: HEK cell assay.

For the molecule `NC1=N[C@@]2(CO1)c1cc(-c3cncc(C#CCO)c3)ccc1Oc1cnc(-c3ccnc(F)c3)cc12` [Example 825, 3-(5-((5S)-2′-amino-3-(2-fluoro-4-pyridinyl)spiro[chromeno[2,3-c]pyridine-5,4′-[1,3]oxazol]-7-yl)-3-pyridinyl)-2-propyn-1-ol], the IC50 in experiment [1] (setting [3]) was 0.0003 µM; in experiment [2] (setting [4]) it was 0.006 µM.

Consider `NC1=N[C@@]2(CO1)c1cc(-c3cncc(C#CCO)c3)ccc1Oc1cnc(C3=CCCOC3)cc12` [Example 827, 3-(5-((5S)-2′-amino-3-(5,6-dihydro-2H-pyran-3-yl)spiro[chromeno[2,3-c]pyridine-5,4′-[1,3]oxazol]-7-yl)-3-pyridinyl)-2-propyn-1-ol], for which the IC50 in experiment [1] (setting [3]) is 0.0005 µM; in experiment [2] (setting [4]) it was 0.002 µM.

For the molecule `COc1nc(Cl)cc2c1Oc1ccc(-c3cccnc3F)cc1[C@@]21COC(N)=N1` [Example 828, (5S)-3-chloro-7-(2-fluoro-3-pyridinyl)-1-methoxyspiro[chromeno[2,3-c]pyridine-5,4′-[1,3]oxazol]-2′-amine], the IC50 was 0.134 µM in experiment [1] (setting [3]) and ≥ 10 µM in experiment [2] (setting [4]).

Regarding `CC#Cc1cncc(-c2ccc3c(c2)[C@@]2(COC(N)=N2)c2cc(Cl)nc(OC)c2O3)c1` [Example 829, (5S)-3-chloro-1-methoxy-7-(5-(1-propyn-1-yl)-3-pyridinyl)spiro[chromeno[2,3-c]pyridine-5,4′-[1,3]oxazol]-2′-amine], the values for the IC50 in experiment [1] (setting [3]) and in experiment [2] (setting [4]) were 0.0302 µM and 4.11 µM, respectively.

Take `COc1nc(Cl)cc2c1Oc1ccc(-c3cccnc3)cc1[C@@]21COC(N)=N1` [Example 830, (5S)-3-chloro-1-methoxy-7-(3-pyridinyl)spiro[chromeno[2,3-c]pyridine-5,4′-[1,3]oxazol]-2′-amine]: the IC50 was 0.469 µM in experiment [1] (setting [3]) and ≥ 10 µM in experiment [2] (setting [4]).

For `COc1nc(-c2ccnc(F)c2)cc2c1Oc1ccc(-c3cccnc3F)cc1[C@@]21COC(N)=N1` [Example 831, (5S)-7-(2-fluoro-3-pyridinyl)-3-(2-fluoro-4-pyridinyl)-1-methoxyspiro[chromeno[2,3-c]pyridine-5,4′-[1,3]oxazol]-2′-amine], the IC50 came out at 0.0011 µM in experiment [1] (setting [3]) and 0.07 µM in experiment [2] (setting [4]).

As for `COc1nc(C2=CCOCC2)cc2c1Oc1ccc(-c3cccnc3F)cc1[C@@]21COC(N)=N1` [Example 832, (5S)-3-(3,6-dihydro-2H-pyran-4-yl)-7-(2-fluoro-3-pyridinyl)-1-methoxyspiro[chromeno[2,3-c]pyridine-5,4′-[1,3]oxazol]-2′-amine], the IC50 in experiment [1] (BACE 1 FRET assay (uM)) worked out at 0.0007 µM; in experiment [2] (Homo sapiens, HEK293, read-out: HEK cell assay (uM), average IC50, HEK cell assay) it was 0.032 µM.

For the molecule `COc1nc(C2=CCCOC2)cc2c1Oc1ccc(-c3cccnc3F)cc1[C@@]21COC(N)=N1` [Example 833, (5S)-3-(5,6-dihydro-2H-pyran-3-yl)-7-(2-fluoro-3-pyridinyl)-1-methoxyspiro[chromeno[2,3-c]pyridine-5,4′-[1,3]oxazol]-2′-amine], the IC50 in experiment [1] (setting [3]) came out at 0.0007 µM; in experiment [2] (setting [4]), 0.021 µM.

`COc1nc(-c2ccncc2)cc2c1Oc1ccc(-c3cccnc3F)cc1[C@@]21COC(N)=N1` [Example 834, (5S)-7-(2-fluoro-3-pyridinyl)-1-methoxy-3-(4-pyridinyl)spiro[chromeno[2,3-c]pyridine-5,4′-[1,3]oxazol]-2′-amine]: the values for the IC50 in experiment [1] (setting [3]) and in experiment [2] (setting [4]) were 0.0035 µM and 0.07 µM, respectively.

Regarding `CC#Cc1cncc(-c2ccc3c(c2)[C@@]2(COC(N)=N2)c2cc(C4=CCOCC4)nc(OC)c2O3)c1` [Example 835, (5S)-3-(3,6-dihydro-2H-pyran-4-yl)-1-methoxy-7-(5-(1-propyn-1-yl)-3-pyridinyl)spiro[chromeno[2,3-c]pyridine-5,4′-[1,3]oxazol]-2′-amine], the IC50 was found to be 0.0006 µM in experiment [1] (setting [3]) and 0.007 µM in experiment [2] (setting [4]).

`CC#Cc1cncc(-c2ccc3c(c2)[C@@]2(COC(N)=N2)c2cc(C4=CCCOC4)nc(OC)c2O3)c1` [Example 836, (5S)-3-(5,6-dihydro-2H-pyran-3-yl)-1-methoxy-7-(5-(1-propyn-1-yl)-3-pyridinyl)spiro[chromeno[2,3-c]pyridine-5,4′-[1,3]oxazol]-2′-amine]: the IC50 worked out at 0.0005 µM in experiment [1] (setting [3]) and 0.004 µM in experiment [2] (setting [4]).

Regarding `CC#Cc1cncc(-c2ccc3c(c2)[C@@]2(COC(N)=N2)c2cc(-c4ccncc4)nc(OC)c2O3)c1` [Example 837, (5S)-1-methoxy-7-(5-(1-propyn-1-yl)-3-pyridinyl)-3-(4-pyridinyl)spiro[chromeno[2,3-c]pyridine-5,4′-[1,3]oxazol]-2′-amine], the values for the IC50 in experiment [1] (setting [3]) and in experiment [2] (setting [4]) were 0.0007 µM and 0.009 µM, respectively.

With `COc1nc(-c2ccncc2)cc2c1Oc1ccc(-c3cccnc3)cc1[C@@]21COC(N)=N1` [Example 838, (5S)-1-methoxy-7-(3-pyridinyl)-3-(4-pyridinyl)spiro[chromeno[2,3-c]pyridine-5,4′-[1,3]oxazol]-2′-amine], the IC50 in experiment [1] (setting [3]) was determined as 0.0073 µM; in experiment [2] (setting [4]), 0.02 µM.

Take `COc1nc(C2=CCOCC2)cc2c1Oc1ccc(-c3cccnc3)cc1[C@@]21COC(N)=N1` [Example 840, (5S)-3-(3,6-dihydro-2H-pyran-4-yl)-1-methoxy-7-(3-pyridinyl)spiro[chromeno[2,3-c]pyridine-5,4′-[1,3]oxazol]-2′-amine]: the IC50 in experiment [1] (setting [3]) turned out to be 0.0043 µM; in experiment [2] (setting [4]) it was 0.015 µM.

As to `COc1nc(C2=CCCOC2)cc2c1Oc1ccc(-c3cccnc3)cc1[C@@]21COC(N)=N1` [Example 841, (5S)-3-(5,6-dihydro-2H-pyran-3-yl)-1-methoxy-7-(3-pyridinyl)spiro[chromeno[2,3-c]pyridine-5,4′-[1,3]oxazol]-2′-amine], the IC50 was 0.0012 µM in experiment [1] (setting [3]) and 0.006 µM in experiment [2] (setting [4]).

Turning to `NC1=N[C@@]2(CO1)c1cc(-c3cccnc3F)ccc1Oc1cnc(-c3ccnc(O)c3)cc12` [Example 842, 4-((5S)-2′-amino-7-(2-fluoro-3-pyridinyl)spiro[chromeno[2,3-c]pyridine-5,4′-[1,3]oxazol]-3-yl)-2-pyridinol], the IC50 was 0.0259 µM in experiment [1] (setting [3]) and 2.56 µM in experiment [2] (setting [4]).

Consider `COCC#Cc1cncc(-c2ccc3c(c2)C2(COC(N)=N2)c2cc(OC)cc(F)c2O3)c1` (stereo not shown) [Example 843, 4′-fluoro-2′-methoxy-7′-(5-(3-methoxy-1-propyn-1-yl)-3-pyridinyl)spiro[1,3-oxazole-4,9′-xanthen]-2-amine], for which the IC50 stood at 0.0088 µM in experiment [1] (setting [3]) and 0.057 µM in experiment [2] (setting [4]).

In the case of `COc1nc(C2CCCOC2)cc2c1Oc1ccc(-c3cccnc3F)cc1[C@@]21COC(N)=N1` (stereo partly drawn) [Example 844, (5S)-7-(2-fluoro-3-pyridinyl)-1-methoxy-3-(tetrahydro-2H-pyran-3-yl)spiro[chromeno[2,3-c]pyridine-5,4′-[1,3]oxazol]-2′-amine], the IC50 in experiment [1] (setting [3]) stood at 0.0067 µM; in experiment [2] (setting [4]), 0.066 µM.

With `COc1nc(C2CCCOC2)cc2c1Oc1ccc(-c3cccnc3)cc1[C@@]21COC(N)=N1` (stereo partly drawn) [Example 845, (5S)-1-methoxy-7-(3-pyridinyl)-3-(tetrahydro-2H-pyran-3-yl)spiro[chromeno[2,3-c]pyridine-5,4′-[1,3]oxazol]-2′-amine], the figures for the IC50 in experiment [1] (setting [3]) and in experiment [2] (setting [4]) were 0.0155 µM and 0.07 µM, respectively.

With `COc1nc(F)cc2c1Oc1ccc(-c3cccnc3)cc1[C@]21COC(N)=N1` [Example 847, (5R)-3-fluoro-1-methoxy-7-(3-pyridinyl)spiro[chromeno[2,3-c]pyridine-5,4′-[1,3]oxazol]-2′-amine, (5S)-3-fluoro-1-methoxy-7-(3-pyridinyl)spiro[chromeno[2,3-c]pyridine-5,4′-[1,3]oxazol]-2′-amine], the figures for the IC50 in experiment [1] (setting [3]) and in experiment [2] (read-out: HEK cell assay) were 0.0004 µM and 0.01 µM, respectively.

Take `C=Cc1cc2c(c(F)n1)Oc1ccc(-c3cncc(F)c3)cc1C21COC(N)=N1` (stereo not shown) [Example 848, 3-ethenyl-1-fluoro-7-(5-fluoro-3-pyridinyl)spiro[chromeno[2,3-c]pyridine-5,4′-[1,3]oxazol]-2′-amine]: the IC50 was found to be 0.0004 µM in experiment [1] (setting [3]) and 0.002 µM in experiment [2] (setting [4]).

As to `COc1nc(N2CCC(F)(F)CC2)cc2c1Oc1ccc(-c3cccnc3F)cc1[C@@]21COC(N)=N1` [Example 849, (5S)-3-(4,4-difluoro-1-piperidinyl)-7-(2-fluoro-3-pyridinyl)-1-methoxyspiro[chromeno[2,3-c]pyridine-5,4′-[1,3]oxazol]-2′-amine], the IC50 in experiment [1] (setting [3]) is 0.0042 µM; in experiment [2] (setting [5]), 0.078 µM.

`CCc1cc2c(c(F)n1)Oc1ccc(-c3cncc(F)c3)cc1[C@@]21COC(N)=N1` [Example 850, (5S)-3-ethyl-1-fluoro-7-(5-fluoro-3-pyridinyl)spiro[chromeno[2,3-c]pyridine-5,4′-[1,3]oxazol]-2′-amine]: the IC50 in experiment [1] (setting [3]) is 0.0045 µM; in experiment [2] (setting [5]) it was 0.052 µM.

On to `Cc1cc(-c2cc3c(c(F)n2)Oc2ccc(-c4cccnc4F)cc2[C@@]32COC(N)=N2)on1` [Example 851, (5S)-1-fluoro-7-(2-fluoro-3-pyridinyl)-3-(3-methyl-5-isoxazolyl)spiro[chromeno[2,3-c]pyridine-5,4′-[1,3]oxazol]-2′-amine], for which the IC50 in experiment [1] (setting [3]) turned out to be 0.0008 µM; in experiment [2] (setting [5]) it was 0.008 µM.

For `COc1ncccc1-c1ccc2c(c1)[C@@]1(COC(N)=N1)c1cc(N3CCC(F)(F)CC3)nc(OC)c1O2` [Example 852, (5S)-3-(4,4-difluoro-1-piperidinyl)-1-methoxy-7-(2-methoxy-3-pyridinyl)spiro[chromeno[2,3-c]pyridine-5,4′-[1,3]oxazol]-2′-amine], the IC50 in experiment [1] (setting [3]) came to 0.0926 µM; in experiment [2] (setting [5]) it was 0.609 µM.

For the molecule `C=CCN(C)c1cc(F)c2c(c1)[C@]1(COC(N)=N1)c1cc(-c3cccnc3F)ccc1O2` [Example 853, (4S)-4′-fluoro-7′-(2-fluoro-3-pyridinyl)-N~2~′-methyl-N~2~′-2-propen-1-ylspiro[1,3-oxazole-4,9′-xanthene]-2,2′-diamine], the IC50 in experiment [1] (setting [3]) is 0.004 µM; in experiment [2] (setting [5]) it was 0.085 µM.
